According to ChEMBL document CHEMBL3638462, “Pyridine and pyrimidine derivatives as phosphodiesterase 10 inhibitors” (2014):
Several values for one entry are separate records, joined by “and”; a condition that tells them apart may be missing. Equal entries are not always repeated.

biological target: cAMP and cAMP-inhibited cGMP 3',5'-cyclic phosphodiesterase 10A (Homo sapiens, UniProt Q9Y233); test: Enzyme Inhibition Assay: To check the inhibition profile, 5 μL of serial diluted compounds were incubated with 5 μL of diluted PDE10 enzyme (BPS Bioscience, San Diego, Calif.) or tissue homogenate in a 384-well polystyrene assay plate (Corning, Corning, N.Y.) for 30 min at room temperature. After incubation, 10 μL of diluted fluorescein labeled cAMP or cGMP substrate were added and incubated for 60 min at room temperature. The reaction was stopped by adding 60 μL of diluted binding reagents and plates were read on an Envision (Perkin Elmer, Waltham, Mass.) for time resolved fluorescence resonance energy transfer. The data were analyzed with GraphPad Prism (La Jolla, Calif.).
Sequence (Q9Y233 whole entry): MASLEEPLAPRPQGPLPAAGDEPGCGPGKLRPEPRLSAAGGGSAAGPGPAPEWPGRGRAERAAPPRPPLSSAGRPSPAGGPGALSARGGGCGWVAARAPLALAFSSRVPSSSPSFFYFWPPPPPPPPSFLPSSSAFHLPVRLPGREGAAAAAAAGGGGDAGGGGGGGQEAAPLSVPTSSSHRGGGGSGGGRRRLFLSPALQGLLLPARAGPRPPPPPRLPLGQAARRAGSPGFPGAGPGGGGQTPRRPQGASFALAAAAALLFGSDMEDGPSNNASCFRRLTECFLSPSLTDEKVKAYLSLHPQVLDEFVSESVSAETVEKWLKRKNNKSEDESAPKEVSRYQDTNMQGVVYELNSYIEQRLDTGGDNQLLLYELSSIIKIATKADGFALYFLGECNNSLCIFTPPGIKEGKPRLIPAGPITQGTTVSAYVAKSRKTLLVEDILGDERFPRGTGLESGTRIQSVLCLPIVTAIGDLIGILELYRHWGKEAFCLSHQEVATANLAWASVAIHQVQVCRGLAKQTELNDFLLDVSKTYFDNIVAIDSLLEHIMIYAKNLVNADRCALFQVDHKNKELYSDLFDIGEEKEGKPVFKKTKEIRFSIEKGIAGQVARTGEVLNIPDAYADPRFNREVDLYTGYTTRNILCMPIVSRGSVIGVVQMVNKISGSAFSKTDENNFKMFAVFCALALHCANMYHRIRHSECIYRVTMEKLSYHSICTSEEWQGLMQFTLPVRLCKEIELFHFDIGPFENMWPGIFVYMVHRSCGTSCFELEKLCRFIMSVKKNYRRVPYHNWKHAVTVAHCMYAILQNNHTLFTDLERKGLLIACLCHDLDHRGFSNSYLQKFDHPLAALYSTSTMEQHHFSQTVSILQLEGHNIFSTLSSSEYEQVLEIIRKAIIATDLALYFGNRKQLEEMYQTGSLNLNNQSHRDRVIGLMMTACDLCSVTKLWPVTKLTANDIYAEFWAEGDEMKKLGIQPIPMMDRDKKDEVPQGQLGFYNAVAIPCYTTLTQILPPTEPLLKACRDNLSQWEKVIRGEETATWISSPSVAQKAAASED

Row | Structure (SMILES) | IC50
1 | N#Cc1ccc2[nH]c(Nc3ccc(Oc4ncccc4C(F)(F)F)cc3)nc2c1 | 112 nM
2 | CC(=O)N1CCC(c2cccnc2Oc2ccc(C(=O)c3nc4ccccc4[nH]3)cc2)CC1 | 0.158 nM
3 | O=C(c1ccc(Oc2ncccc2-c2ccncc2)cc1)c1nc2ccccc2[nH]1 | 0.256 nM
4 | O=C(c1ccc(Oc2ncccc2Br)cc1)c1nc2ccccc2[nH]1 | 44.7 nM
5 | Cc1cc(-c2cccnc2Oc2ccc(C(=O)c3nc4ccccc4[nH]3)cc2)ccn1 | 0.76 nM
6 | Cn1cc(-c2cccnc2Oc2ccc(C(=O)c3nc4ccccc4[nH]3)cc2)cn1 | 6.28 nM
7 | COc1cc(-c2cccnc2Oc2ccc(C(=O)c3nc4ccccc4[nH]3)cc2)ccn1 | 1.61 nM
8 | O=C(c1ccc(Oc2ncccc2N2CCOCC2)cc1)c1nc2ccccc2[nH]1 | 1.59 nM
9 | O=C(c1ccc(Oc2ncccc2-c2cccnc2)cc1)c1nc2ccccc2s1 | 32 nM
10 | FC(F)(F)c1cc(-c2cccnc2Oc2ccc(Cc3nc4ccccc4[nH]3)cc2)ccn1 | 118 nM
11 | FC(F)(F)c1cc(-c2cccnc2Oc2ccc(Nc3nc4ccccc4[nH]3)cc2)ccn1 | 36.7 nM
12 | O=C(c1ccc(Oc2ncccc2-c2cnn(C3CC3)c2)cc1)c1nc2ccccc2[nH]1 | 23 nM
13 | O=C(c1ccc(Oc2ncccc2Br)cc1)c1nc2ccccc2n1C1CCCCO1 (configuration not stated) | 1610 nM
14 | O=C(c1ccc(Oc2ncccc2C(=O)NCCc2ccccn2)cc1)c1nc2ccccc2[nH]1 | 1.74 nM
15 | COC[C@H](C)NC(=O)c1cccnc1Oc1ccc(C(=O)c2nc3ccccc3[nH]2)cc1 | 12.8 nM
16 | O=C(c1ccc(Oc2ncccc2-c2ncnc3nc[nH]c23)cc1)c1nc2ccccc2[nH]1 | 32.7 nM
17 | O=C(c1ccc(Oc2ncccc2-c2ccncn2)cc1)c1nc2ccccc2[nH]1 | 7.45 nM
18 | Cc1ccc(-c2cccnc2Oc2ccc(C(=O)c3nc4ccccc4[nH]3)cc2)cn1 | 0.177 nM
19 | O=C(c1ccc(Oc2ncccc2Br)cc1)c1nc2ccc(F)cc2[nH]1 | 74.6 nM
20 | C[C@@H](Cc1ccccn1)NC(=O)c1cccnc1Oc1ccc(C(=O)c2nc3ccccc3[nH]2)cc1 | 0.971 nM and 0.541 nM

Row | Structure (SMILES) | IC50
21 | O=C(c1ccc(Oc2ncccc2N2CCCCC2)cc1)c1nc2ccccc2[nH]1 | 13.3 nM
22 | O=C(c1ccc(Oc2ncccc2N2CCCC2)cc1)c1nc2ccccc2[nH]1 | 14 nM
23 | O=C(c1ccc(Oc2ncccc2C(=O)N[C@@H](CO)Cc2ccccc2)cc1)c1nc2ccccc2[nH]1 | 12.8 nM
24 | O=C(c1ccc(Oc2ncccc2C(=O)N[C@H](CO)Cc2ccccc2)cc1)c1nc2ccccc2[nH]1 | 0.839 nM
25 | CC(C)(CNC(=O)c1cccnc1Oc1ccc(C(=O)c2nc3ccccc3[nH]2)cc1)c1ccccn1 | 1.48 nM
26 | O=C(c1ccc(Oc2ncccc2-c2ccnc3ccccc23)cc1)c1nc2ccccc2[nH]1 | 0.67 nM
27 | O=C(c1ccc(Oc2ncccc2C(=O)NC2(Cc3ccccc3)CC2)cc1)c1nc2ccccc2[nH]1 | 0.168 nM
28 | CN(c1ccc(Oc2ncccc2-c2cccnc2)cc1)c1nc2ccccc2s1 | 15.2 nM
29 | O=C(c1ccc(Oc2ncccc2-c2cccnc2)cc1)c1nc2ncccc2[nH]1 | 4.81 nM
30 | O=C(c1ccc(Oc2ncccc2C(=O)N[C@H](CO)Cc2ccc(O)cc2)cc1)c1nc2ccccc2[nH]1 | 3.65 nM
31 | O=C(c1ccc(Oc2ncccc2C(=O)NCCc2ccccc2)cc1)c1nc2ccccc2[nH]1 | 2.72 nM
32 | COC1CCN(c2cccnc2Oc2ccc(Nc3nc4ccccc4s3)cc2)CC1 | 3.16 nM
33 | Cc1ccc(CCNC(=O)c2cccnc2Oc2ccc(C(=O)c3nc4ccccc4[nH]3)cc2)cc1 | 3.11 nM
34 | COC[C@H](Cc1ccccc1)NC(=O)c1cccnc1Oc1ccc(C(=O)c2nc3ccccc3[nH]2)cc1 | 1.64 nM
35 | c1cncc(-c2cccnc2Oc2ccc(Nc3nc4ccccc4[nH]3)cc2)c1 | 0.179 nM
36 | O=C(c1ccc(Oc2ncccc2C(=O)NC2Cc3ccccc3C2)cc1)c1nc2ccccc2[nH]1 | 56.7 nM
37 | CC(=O)N1CC=C(c2cccnc2Oc2ccc(C(=O)c3nc4ccccc4[nH]3)cc2)CC1 | 0.194 nM
38 | C[C@@H](CNC(=O)c1cccnc1Oc1ccc(C(=O)c2nc3ccccc3[nH]2)cc1)c1ccccc1 | 2.69 nM
39 | O=C1C=C(c2cccnc2Oc2ccc(C(=O)c3nc4ccccc4[nH]3)cc2)CC1 | 1.01 nM
40 | C[C@H](CNC(=O)c1cccnc1Oc1ccc(C(=O)c2nc3ccccc3[nH]2)cc1)c1ccccc1 | 8.81 nM

Row | Structure (SMILES) | IC50
41 | CC(=O)N1CCC(c2cccnc2Oc2ccc([C@H](O)c3nc4ccccc4[nH]3)cc2)CC1 | 4.2 nM
42 | OC(c1ccc(Oc2ncccc2C2CCOCC2)cc1)c1nc2ccccc2[nH]1 (configuration not stated) | 45.7 nM
43 | O[C@@H]1CCC[C@H](c2cccnc2Oc2ccc(Nc3nc4ccccc4s3)cc2)C1 | 2.21 nM
44 | O=C(c1ccc(Oc2ncccc2C2(F)CCOCC2)cc1)c1nc2ccccc2[nH]1 | 0.311 nM
45 | C[C@]1(O)CCC[C@H](c2cccnc2Oc2ccc(C(=O)c3nc4ccccc4[nH]3)cc2)C1 | 1.14 nM
46 | O=C(c1ccc(Oc2ncccc2[C@@H]2CC[C@H](O)C2)cc1)c1nc2ccccc2[nH]1 | 0.675 nM
47 | C[C@H](Cc1ccc(F)cc1)NC(=O)c1cccnc1Oc1ccc(C(=O)c2nc3ccccc3[nH]2)cc1 | 0.135 nM
48 | COc1cncc(-c2cccnc2Oc2ccc(C(=O)c3nc4ccccc4[nH]3)cc2)c1 | 0.622 nM
49 | COc1ccc(-c2cccnc2Oc2ccc(C(=O)c3nc4ccccc4[nH]3)cc2)cn1 | 1.27 nM
50 | C[C@H](Cc1ccccn1)NC(=O)c1cccnc1Oc1ccc(C(=O)c2nc3ccccc3[nH]2)cc1 | 6.83 nM
51 | c1cnc(Oc2ccc(Nc3nc4ccccc4s3)cc2)c([C@H]2CCOC2)c1 | 0.865 nM
52 | O=C(c1ccc(Oc2ncccc2[C@H]2CCC[C@@H](O)C2)cc1)c1nc2ccccc2[nH]1 | 0.99 nM
53 | C[C@]1(O)CCCC(c2cccnc2Oc2ccc(C(=O)c3nc4ccccc4[nH]3)cc2)C1 (some centres not stated) | 1.22 nM
54 | C[C@]1(O)CC[C@@H](c2cccnc2Oc2ccc(C(=O)c3nc4ccccc4[nH]3)cc2)CC1 | 1.63 nM
55 | Cn1c(C(=O)c2ccc(Oc3ncccc3C3(F)CCOCC3)cc2)nc2ccccc21 | 0.749 nM
56 | O[C@@H]1CC[C@H](c2cccnc2Oc2ccc(Nc3nc4ccccc4s3)cc2)C1 | 2.64 nM
57 | COc1cccc(-c2cccnc2Oc2ccc(Nc3nc4ccccc4s3)cc2)n1 | 164 nM
58 | O[C@H]1CCC[C@@H](c2cccnc2Oc2ccc(Nc3nc4ccccc4s3)cc2)C1 | 3.75 nM
59 | O[C@H]1CC[C@H](c2cccnc2Oc2ccc(Nc3nc4ccccc4s3)cc2)C1 | 1.21 nM
60 | O[C@H]1CC[C@@H](c2cccnc2Oc2ccc(Nc3nc4ccccc4s3)cc2)C1 | 2.54 nM

The next lines start with the values.

Row | IC50 | Structure (SMILES)
61 | 0.175 nM | CC(=O)N1CCC(c2cccnc2Oc2ccc(Nc3nc4ccccc4s3)cc2)CC1
62 | 24.2 nM | C[C@]1(O)CCC[C@H](c2cccnc2Oc2ccc(Nc3ccccn3)cc2)C1
63 | 691 nM | Brc1cccnc1Oc1ccc(Nc2nc3ccccc3s2)cc1
64 | 18.3 nM | N#Cc1cccc(-c2cccnc2Oc2ccc(Nc3nc4ccccc4s3)cc2)c1
65 | 23.7 nM | COc1ccc(-c2cccnc2Oc2ccc(Nc3nc4ccccc4s3)cc2)cn1
66 | 0.303 nM | c1cnc(Oc2ccc(Nc3nc4ccccc4s3)cc2)c(-c2cncnc2)c1
67 | 5 nM | Cc1cc(-c2cccnc2Oc2ccc(Nc3nc4ccccc4s3)cc2)ccn1
68 | 98.8 nM | O=C(c1ccc(Oc2ncccc2N2CCOCC2)cc1)c1nc2ccccc2s1
69 | 22.4 nM | c1cnc(Oc2ccc(Nc3nc4ccccc4s3)cc2)c(-c2ccncn2)c1
70 | 6.91 nM | c1cnc(Oc2ccc(Nc3nc4ccccc4s3)cc2)c(-c2cccc3ncccc23)c1
71 | 43.9 nM | c1cnc(Oc2ccc(Nc3nc4ccccc4s3)cc2)c(-c2ccc3c(c2)OCCO3)c1
72 | 42.4 nM | c1cnc(Oc2ccc(Nc3nc4ccccc4s3)cc2)c(-c2ccc3c(c2)CCO3)c1
73 | 3940 nM | O=C(c1ccc(Oc2ncccc2Br)cc1)c1nc2ccccc2s1
74 | 72 nM | C1=C(c2cccnc2Oc2ccc(Nc3nc4ccccc4s3)cc2)CCCC1
75 | 7.22 nM | c1cnc(Oc2ccc(Nc3nc4ccccc4s3)cc2)c(-c2ccnc3ccccc23)c1
76 | 44.4 nM | CC(C)(C)OC(=O)N1CC=C(c2cccnc2Oc2ccc(Nc3nc4ccccc4s3)cc2)CC1
77 | 2.21 nM | C1=C(c2cccnc2Oc2ccc(Nc3nc4ccccc4s3)cc2)CCOC1
78 | 0.219 nM | Cc1ccc(-c2cccnc2Oc2ccc(Nc3nc4ccccc4s3)cc2)cn1
79 | 0.363 nM | CC(=O)N1CC=C(c2cccnc2Oc2ccc(Nc3nc4ccccc4s3)cc2)CC1

Row | IC50 | Structure (SMILES)
80 | 2.84 nM | O=C1C=C(c2cccnc2Oc2ccc(Nc3nc4ccccc4s3)cc2)CC1
81 | 54.2 nM | c1cnc(Oc2ccc(Nc3nc4ccccc4s3)cc2)c([C@H]2CCCO2)c1
82 | 4.97 nM and 13.3 nM | O=C(c1ccc(Oc2ncccc2[C@@H]2CCCO2)cc1)c1nc2ccccc2[nH]1
83 | 0.92 nM | O=C(c1ccc(Oc2ncccc2[C@@H]2CCOC2)cc1)c1nc2ccccc2[nH]1
84 | 22.3 nM | C1=CO[C@H](c2cccnc2Oc2ccc(Nc3nc4ccccc4s3)cc2)CC1
85 | 6.87 nM | C[C@]1(O)CCC[C@H](c2cccnc2Oc2ccc(Nc3nc4ccccc4s3)cc2)C1
86 | 0.195 nM | CN1C[C@@H](c2cccnc2Oc2ccc(Nc3nc4ccccc4s3)cc2)CC1=O
87 | 11.6 nM | FC(F)(c1ccc(Oc2ncccc2C2CCOCC2)cc1)c1nc2ccccc2[nH]1
88 | 0.509 nM | Cn1c(C(=O)c2ccc(Oc3ncccc3C3CCOCC3)cc2)nc2ccccc21
89 | 3.66 nM | C[C@@]1(O)CCC[C@@H](c2cccnc2Oc2ccc(Nc3nc4ccccc4s3)cc2)C1
90 | 12.6 nM | C[C@]1(O)CC[C@@H](c2cccnc2Oc2ccc(Nc3nc4ccccc4s3)cc2)CC1
91 | 1.42 nM | C[C@]1(O)CC[C@H](c2cccnc2Oc2ccc(C(=O)c3nc4ccccc4[nH]3)cc2)CC1
92 | 4.51 nM | C[C@]1(O)CC[C@H](c2cccnc2Oc2ccc(Nc3nc4ccccc4s3)cc2)CC1
93 | 2.49 nM | c1cnc(Oc2ccc(Nc3nc4ccccc4s3)cc2)c([C@@H]2CCCOC2)c1
94 | 0.268 nM | CC(=O)N1CCC[C@@H](c2cccnc2Oc2ccc(Nc3nc4ccccc4s3)cc2)C1
95 | 2.54 nM | COc1ncccc1-c1cccnc1Oc1ccc(Nc2nc3ccccc3s2)cc1
96 | 6.38 nM | O[C@H]1CC[C@H](c2cccnc2Oc2ccc(Nc3nc4ccccc4s3)cc2)CC1
97 | 1.63 nM | O[C@H]1CC[C@@H](c2cccnc2Oc2ccc(Nc3nc4ccccc4s3)cc2)CC1
